# Reference: PubChem BioAssay (NCI)
#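 Cultured in 96-well plates, cells were exposed to test compound for 48 hours across five concentrations. TGI: concentration producing complete growth inhibition.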
# Tests used:
# Test in all cases: DTP human tumour cell line panel, 48 h
# [1] = test system: SW-620 colon
# [2] = test system: SF-539 CNS
# [3] = test system: RXF 393 renal
# [4] = test system: OVCAR-4 ovarian
# [5] = test system: MDA-MB-435
# [6] = test system: SNB-19 CNS
# [7] = test system: DU-145 prostate
# [8] = test system: OVCAR-5 ovarian
# [9] = test system: UO-31 renal
# [10] = test system: U251 CNS
# [11] = test system: SK-MEL-5 melanoma
# [12] = test system: ACHN renal
# [13] = test system: HOP-92 NSCLC
# [14] = test system: LOX IMVI melanoma
# [15] = test system: A549 NSCLC
# [16] = test system: HCT-116 colon
# [17] = test system: SNB-75 CNS
# [18] = test system: A498 renal
# [19] = test system: NCI-H226 lung
# [20] = test system: K-562 leukemia
# [21] = test system: EKVX NSCLC
# [22] = test system: TK-10 renal
# [23] = test system: HL-60(TB) leukemia
# [24] = test system: RPMI-8226 leukemia
# [25] = test system: MALME-3M melanoma
# [26] = test system: KM12 colon
# [27] = test system: MCF7 breast
# [28] = test system: MOLT-4 leukemia
# [29] = test system: IGROV1 ovarian
# [30] = test system: BT-549 breast
# [31] = test system: SF-295 CNS
# [32] = test system: OVCAR-3 ovarian
# [33] = test system: SF-268 CNS
# [34] = test system: NCI-H460 lung
# [35] = test system: COLO 205 colon
# [36] = test system: UACC-257 melanoma
# [37] = test system: NCI-H522 lung
# [38] = test system: CAKI-1 renal
# [39] = test system: NCI/ADR-RES ovarian
# [40] = test system: MDA-N
# [41] = test system: T-47D breast
# [42] = test system: NCI-H23 lung
# [43] = test system: HT29 colon
# [44] = test system: SK-MEL-28 melanoma
# [45] = test system: M14 melanoma
# [46] = test system: HCC-2998 colon
# [47] = test system: OVCAR-8 ovarian
# [48] = test system: HCT-15 colon
# [49] = test system: SN12C renal
# [50] = test system: HOP-62 NSCLC
# [51] = test system: SK-OV-3 ovarian
# [52] = test system: 786-0 renal
# [53] = test system: SK-MEL-2 melanoma
# [54] = test system: MDA-MB-231 breast
# [55] = test system: UACC-62 melanoma
# [56] = test system: SR leukemia
# [57] = test system: CCRF-CEM leukemia
# [58] = test system: PC-3 prostate
# [59] = test system: HS 578T breast
smiles,measurement,setting,value
Cc1ccc(NCCN(C)C)c2c(=O)c3cc(O)ccc3oc12,TGI,[1],17 µM
same,TGI,[2],20.5 µM
same,TGI,[3],24.4 µM
same,TGI,[4],31.3 µM
same,TGI,[5],24.4 µM
same,TGI,[6],23.7 µM
same,TGI,[7],28.3 µM
same,TGI,[8],29.1 µM
same,TGI,[9],22.1 µM
same,TGI,[10],21 µM
same,TGI,[11],24 µM
same,TGI,[12],17.6 µM
same,TGI,[13],23.4 µM
same,TGI,[14],22.2 µM
same,TGI,[15],20.9 µM
same,TGI,[16],17.2 µM
same,TGI,[17],16 µM
same,TGI,[18],28.2 µM
same,TGI,[19],29.5 µM
same,TGI,[20],12.3 µM
same,TGI,[21],29.2 µM
same,TGI,[22],27.9 µM
same,TGI,[23],19.4 µM
same,TGI,[24],34.3 µM
same,TGI,[25],27.3 µM
same,TGI,[26],25 µM
same,TGI,[27],19.6 µM
same,TGI,[28],11.7 µM
same,TGI,[29],24.9 µM
same,TGI,[30],30.6 µM
same,TGI,[31],23 µM
same,TGI,[32],30.8 µM
same,TGI,[33],17.7 µM
same,TGI,[34],15 µM
same,TGI,[35],24.2 µM
same,TGI,[36],32.7 µM
same,TGI,[37],21.7 µM
same,TGI,[38],22.9 µM
same,TGI,[39],24.3 µM
same,TGI,[40],23 µM
same,TGI,[41],31.5 µM
same,TGI,[42],25.6 µM
same,TGI,[43],23.7 µM
same,TGI,[44],28.4 µM
same,TGI,[45],25.3 µM
same,TGI,[46],24.3 µM
same,TGI,[47],19.7 µM
same,TGI,[48],21.2 µM
same,TGI,[49],20.2 µM
same,TGI,[50],23.3 µM
same,TGI,[51],26.4 µM
same,TGI,[52],18.3 µM
same,TGI,[53],35.4 µM
same,TGI,[54],22.2 µM
same,TGI,[55],23 µM
same,TGI,[56],3.35 µM
same,TGI,[57],16 µM
same,TGI,[58],24.2 µM
same,TGI,[59],19.9 µM
